Target: T1, human α2C (Homo sapiens, UniProt P18825)
T1 construct: expressed in transfected cells; host or cells: CHO (CHO-C4)
T1 sequence (P18825 1-462): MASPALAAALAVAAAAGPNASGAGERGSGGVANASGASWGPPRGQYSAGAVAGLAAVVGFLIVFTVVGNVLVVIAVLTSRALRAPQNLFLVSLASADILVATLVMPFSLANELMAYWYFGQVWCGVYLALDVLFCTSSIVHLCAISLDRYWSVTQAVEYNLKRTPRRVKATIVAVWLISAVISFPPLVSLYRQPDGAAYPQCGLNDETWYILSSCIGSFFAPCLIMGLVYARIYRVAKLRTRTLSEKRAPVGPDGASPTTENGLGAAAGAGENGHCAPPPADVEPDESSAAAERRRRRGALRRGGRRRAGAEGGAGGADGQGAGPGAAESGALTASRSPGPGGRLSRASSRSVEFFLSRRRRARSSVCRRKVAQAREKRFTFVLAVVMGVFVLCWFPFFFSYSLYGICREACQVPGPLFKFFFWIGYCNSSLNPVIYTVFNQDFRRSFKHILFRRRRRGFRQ
Experiment: Receptor binding assay, [3H]rauwolscine, CHO-C4 cell membranes
Details: 22°C, 30 minutes
Description: Cell preparation: Chinese hamster ovary (CHO) cells expressing the human α2A and human α2C (CHO-C10 and CHO-C4 respectively) receptors and CHO cells (CHO-RNG) expressing the rat α2B adrenoceptor were grown to near confluence in Dulbecco's modified Eagle's medium supplemented with 10% fetal bovine serum using standard cell culture methods. Cells were harvested by scraping and placed into cold buffer of the following composition: 50 mM Tris-HCl, 5 mM EDTA, pH 7.4). Cells were then homogenized with a Polytron homogenizer for 2 X 10 sec at setting #7, and centrifuged for 20 minutes at 49,000 x g. The pellet fraction was washed (resuspended in Tris-HCl, pH 8 buffer and centrifuged for 15-20 minutes at 49,000 x g) 2 times and stored at -100°C until binding assay.
Binding Studies: The radioligands [^3H]rauwolscine (specific activity 80 Ci/mmol) and [^3H]prazosin (specific activity 76 Ci/mmol) were obtained from New England Nuclear, Boston, MA. Frozen membrane pellet was resuspended in 25 mM glycine/glycine, pH 7.5 and incubated with radioligand under the following conditions: CHO-C10, CHO-RNG, CHO-C4-[^3H]rauwolscine, 22°C, 30 minutes; RKC-[^3H]rauwolscine, 0°C, 120 minutes; and, HCC-[^3H]prazosin, 22°C, 30 minutes in a final volume of 500 ul. At the end of the incubation period, the samples were filtered through glass filters (Whatman GF/B) in a 96 well cell harvester and rapidly washed four times with 4 mL of iced-cold 50 mM Tris-HCl buffer. The filters were then oven dried and transferred to scintillation vials containing 10 mL of Beckman's Ready Protein® scintillation cocktail for counting. Specific binding defined by 10 uM phentolamine for competition studies were as follows: 2.4 nM [^3H]brimonidine-RbICB 62%; 2.4 nM [^3H]rauwolscine-RbICB 75%; 2 nM [^3H]rauwolscine-RbKc 88%; 0.3 nM [^3H] rauwolscine-CHO-C10 99%; 0.4 nM [^3H]rauwolscine-CHO-RNG 99%, 0.3 nM [^3H]prazosin 87%; and 1 nM [^3H]rauwolscine-CHO-C4 90%. Protein concentrations were determined with a protein assay kit from Bio Rad. Binding isotherms, equilibrium dissociation and affinity constants were analyzed and determined by the non-linear least squares curve fitting programs EBDA (BioSoft) or AccuFit Competition/Saturation by Beckman.
The radioligands [^3H)rauwolscine (specific activity 80 Ci/mmol) and [^3H]prazosin (specific activity 76 Ci/mmol) were obtained from New England Nuclear, Boston, MA. Frozen membrane pellet was resuspended in 25 mM glycine/glycine, pH 7.4 and incubated with radioligand under the following conditions: CHO-C10, CHO-RNG, CHO-C4-[^3H]rauwolscine, 22°C, 30 min.; and, HCC-[^3H]prazosin, 22°C, 30 minutes in a final volume of 500 ul. At the end of the incubation period, the samples were filtered through glass fiber filters (Whatman GF/B) in a 96 well cell harvester and rapidly washed four times with 4 mL of iced-cold 50 mM Tris-CHl buffer. The filters were then oven dried and transferred to scintillation vials containing 5 mL of Beckman's Ready Protein® scintillation cocktail for counting. Specific binding defined by 10 uM phentolamine for competition studies were as follows: 0.3 nM[^3H] rauwolscine-CHO-C10 99%; 0.4 nM [^3H]rauwolscine-CHO-RNG 99%, and 0.3 nM [^3H] prazosin-HCC 87%. Protein concentrations were determined with a protein assay kit from Bio Rad. Binding isotherms, equilibrium dissociation and affinity constants were analyzed and determined by the non-linear least squares curve fitting programs AccuFit Competition/Saturation by Beckman.

Structure (SMILES)	Ki [nM]
Brc1c(Nc2ncc[nH]2)ccc2nccnc12	9670
c1ccc(Nc2ncc[nH]2)cc1	3240
Clc1cccc(Cl)c1Nc1ncc[nH]1	1120
Cc1c(Nc2ncc[nH]2)ccc2c1NCCO2	229
Brc1ccccc1Nc1ncc[nH]1	2390
Clc1ccccc1Nc1ncc[nH]1	2250

The remaining lines, values ahead:

Ki [nM]	Structure (SMILES)
512	COc1ccc(Nc2ncc[nH]2)c(C)c1
19	Cc1c(Nc2ncc[nH]2)ccc2c1OCCO2
577	Cc1ccccc1Nc1ncc[nH]1
252	c1cc2c(c(Nc3ncc[nH]3)c1)CCCC2

From patent publication EP0741709B1, “AROMATIC 2-AMINO-IMIDAZOLE DERIVATIVES AS ALPHA-2A ADRENOCEPTOR AGONISTS” (Allergan Sales, Inc., priority 1994, dated 1995)
